In US20210221866A1, “PROTEASE-RESISTANT LIPIDATED GLP-1 ANALOGS” (MEDIMMUNE LIMITED, priority 2015, published 2021):
Like-named read-outs stand apart in the source and are kept apart here. Numbered stars: 1 amine (or outer) side, 2 acyl side, 3 side chain; on linkers, the order of the positions; unused ones are H or OH. Square brackets hold non-standard residues; d marks the D form. Side chains are listed from the residue outwards. Peptide text beside a SMILES is read from it. * marks the point of attachment. C18 diacid = O=C(O)CCCCCCCCCCCCCCCCC(=O)*; γGlu = O=C(O)[C@H](CCC(=O)[*:2])N[*:1]; Palmitoyl = CCCCCCCCCCCCCCCC(=O)*; αMeF = C[C@](N)(Cc1ccccc1)C(=O)O; αMeK = C[C@](N)(CCCCN)C(=O)O; Lauroyl = CCCCCCCCCCCC(=O)*; αMeS = C[C@](N)(CO)C(=O)O; AEEA = NCCOCCOCC(=O)O; Aib = CC(C)(N)C(=O)O

Assays:
recombinant Neprilysin = biological target: T1, recombinant Neprilysin (Homo sapiens, UniProt P08473); assay: Proteolytic resistance to neprilysin (% remaining peptide, RP-HPLC AUC); format: in vitro ADME; details: t = 0 (baseline); 37° C., pH 8.3; enzyme:peptide ~1:33 for non-lipidated, ~1:2.5 for lipidated peptides
T1 construct: purchased R&D Systems 1182-ZNC-010
Protocol: Ratio enzyme (units):peptide (moles) ˜1:33. […] Ratio enzyme (units):peptide (moles) ˜1:2.5.
15 μL aliquots (˜15 ng initial peptide) of the peptide-enzyme mixture were periodically withdrawn (t=0, 30 mins, 1 hr, 2 hr, 4 hr, 8 hr, 24 hr) and quenched immediately by addition to an equal volume (15 μL) of 5% TFA (v/v) in 1:1 water/acetonitrile to arrest proteolytic activity. 20 μL aliquots (˜10 ng initial peptide) were analyzed by LC/MS and/or analytical RP-HPLC as follows: LC/MS method: Agilent Polaris C8-A column (4.6×100 mm, 3 micron) eluted with a linear binary gradient of 10-90% MeCN (0.1% TFA v/v) in water (0.1% TFA v/v) over 30 mins at 1.5 mL min-1 at ambient temperature with detection by both UV absorption at 210 nm and ionization using a Waters 3100 mass detector (ESI+ mode). Peptide fragments deriving from enzymatic hydrolysis were identified by molecular weight, allowing location of the site of cleavage. Analytical RP-HPLC method: Agilent Polaris C8-A column (4.6×100 mm, 3 micron) eluted with a linear binary gradient of 10-90% MeCN (0.1% TFA v/v) in water (0.1% TFA v/v) over either 10 or 15 mins at 1.5 mL min^−1 at 40° C. with detection by UV absorption at 210 nm. Manual integration (AUC) allowed estimation of remaining intact peptide over the time course of the experiment.
25 μL aliquots (˜6 μg initial peptide) were analyzed by LC/MS and/or analytical RP-HPLC as follows: LC/MS method: Agilent Polaris C8-A column (4.6×100 mm, 3 micron) eluted with a linear binary gradient of 10-90% MeCN (0.1% TFA v/v) in water (0.1% TFA v/v) over 30 mins at 1.5 mL min^−1 at ambient temperature with detection by both UV absorption at 210 nm and ionization using a Waters 3100 mass detector (ESI^+ mode). Peptide fragments deriving from enzymatic hydrolysis were identified by molecular weight, allowing location of the site of cleavage. Analytical RP-HPLC method: Agilent Polaris C8-A column (4.6×100 mm, 3 micron) eluted with a linear binary gradient of 10-90% MeCN (0.1% TFA v/v) in water (0.1% TFA v/v) over either 10 or 15 mins at 1.5 mL min^−1 at 40° C. with detection by UV absorption at 210 nm. Manual integration (AUC) allowed estimation of remaining intact peptide over the time course of the experiment.

[1] = biological target: T2, porcine pancreatic pepsin (Sus scrofa, UniProt P00791); assay: Proteolytic resistance to pepsin (% remaining intact peptide, RP-HPLC AUC); format: in vitro ADME; details: t = 0; 37° C., pH 2.0
T2 construct: purchased Sigma P7012
Protocol: Pepsin: Lyophilized porcine pancreatic pepsin (Sigma: P7012) was reconstituted to afford a solution of 200 μg/mL (˜500 units/mL) in assay buffer (0.1 M HCl, pH 2.0) to give the enzyme stock solution. […] Ratio enzyme (units):peptide (moles) ˜1:6. […] Ratio enzyme (units):peptide (μmoles) ˜2:1.
Lyophilized porcine pancreatic pepsin (Sigma: P7012) was reconstituted to […] (˜500 units/mL) in assay buffer ([…], pH 2.0) to give the enzyme stock solution.

[2] = biological target: porcine pancreatic trypsin (Sus scrofa, UniProt P00761); assay: Proteolytic resistance to trypsin (% remaining intact peptide, RP-HPLC AUC); format: in vitro ADME; details: t = 0; 37° C., pH 7.8
Protocol: Trypsin: Lyophilized porcine pancreatic trypsin (Sigma: T1426) was reconstituted to afford a solution of 100 μg/mL (˜300 units/mL) in assay buffer (50 mM Tris, 10 mM CaCl2), 150 mM NaCl, 1 mM HCl, adjusted to pH 7.8) to give the enzyme stock solution. […] Ratio enzyme (units):peptide (μmoles) ˜1:11. […] Ratio enzyme (units):peptide (μ moles) ˜1.2:1.
Lyophilized porcine pancreatic trypsin (Sigma: T7409) was reconstituted to 200 μg/mL (˜300 units/mL) in assay buffer (50 mM Tris, 10 mM CaCl2), 150 mM NaCl, 1 mM HCl, adjusted to pH 7.8) to give the enzyme stock solution. […] 15 μL aliquots (˜15 μg initial peptide) of the peptide-enzyme mixture were periodically withdrawn (t=0, 30 mins, 1 hr, 2 hr, 4 hr, 8 hr, 24 hr) and quenched immediately by addition to an equal volume (15 μL) of 5% TFA (v/v) in 1:1 water/acetonitrile to arrest proteolytic activity. 20 μL aliquots (˜10 μg initial peptide) were analysed by LC/MS and/or analytical RP-HPLC as follows: LC/MS method: Agilent Polaris C8-A column (4.6×100 mm, 3 micron) eluted with a linear binary gradient of 10-90% MeCN (0.1% TFA v/v) in water (0.1% TFA v/v) over 30 mins at 1.5 mL min^−1 at ambient temperature with detection by both UV absorption at 210 nm and ionization using a Waters 3100 mass detector (ESI^+ mode). Peptide fragments deriving from enzymatic hydrolysis were identified by molecular weight, allowing location of the site of cleavage. Analytical RP-HPLC method: Agilent Polaris C8-A column (4.6×100 mm, 3 micron) eluted with a linear binary gradient of 10-90% MeCN (0.1% TFA v/v) in water (0.1% TFA v/v) over either 10 or 15 mins at 1.5 mL min^−1 at 40° C. with detection by UV absorption at 210 nm. Manual integration (AUC) allowed estimation of remaining intact peptide over the time course of the experiment.
Lyophilized porcine pancreatic trypsin (Sigma: T7409) was reconstituted to 200 μg/mL (˜300 units/mL) in assay buffer (50 mM Tris, 10 mM CaCl2), 150 mM NaCl, 1 mM HCl, adjusted to pH 7.8) to give the enzyme stock solution. […] 25 μL aliquots (˜17 μg initial peptide) of the peptide-enzyme mixture were periodically withdrawn (t=0, 30 mins, 1 hr, 2 hr, 4 hr, 8 hr, 24 hr) and quenched immediately by addition to an equal volume (25 μL) of 5% TFA (v/v) in 1:1 water/acetonitrile to arrest proteolytic activity. 25 μL aliquots (˜8 μg initial peptide) were analysed by LC/MS and/or analytical RP-HPLC as follows: LC/MS method: Agilent Polaris C8-A column (4.6×100 mm, 3 micron) eluted with a linear binary gradient of 10-90% MeCN (0.1% TFA v/v) in water (0.1% TFA v/v) over 30 mins at 1.5 mL min^−1 at ambient temperature with detection by both UV absorption at 210 nm and ionization using a Waters 3100 mass detector (ESI^+ mode). Peptide fragments deriving from enzymatic hydrolysis were identified by molecular weight, allowing location of the site of cleavage. Analytical RP-HPLC method: Agilent Polaris C8-A column (4.6×100 mm, 3 micron) eluted with a linear binary gradient of 10-90% MeCN (0.1% TFA v/v) in water (0.1% TFA v/v) over either 10 or 15 mins at 1.5 mL min^−1 at 40° C. with detection by UV absorption at 210 nm. Manual integration (AUC) allowed estimation of remaining intact peptide over the time course of the experiment.

[3] = biological target: T3, human GLP-1 receptor (GLP-1R) (Homo sapiens, UniProt P43220); assay: cAMP assay, human GLP-1R cells; format: cell-based; details: Table 9, bis-lipidated peptides
T3 construct: expressed in transfected cells; host or cells: HEK293 cells or CHO cells
Outline: (§1)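 Peptide-stimulated cAMP measured by two-step HTRF after a 30 min room-temperature incubation with receptor-expressing cells (hGLP-1R, hGIPR at 1×10^5 cells/ml; hGCGR at 2×10^5 cells/ml). Duplicate dilutions; EC50 from 4-parameter logistic fit of % Delta F.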

[4] = biological target: T4, human glucagon receptor (GCGR) (Homo sapiens, UniProt P47871); assay: cAMP assay, human GCGR cells; format: cell-based; details: Table 9, bis-lipidated peptides
T4 construct: expressed in transfected cells; host or cells: HEK293 cells or CHO cells
Outline: as §1

[5] = biological target: T5, human glucose-dependent insulinotropic peptide receptor (GIPR) (Homo sapiens, UniProt P48546); assay: cAMP assay, human GIPR cells; format: cell-based; details: Table 9, bis-lipidated peptides
T5 construct: expressed in transfected cells; host or cells: HEK293 cells or CHO cells
T5 sequence (P48546 22-466): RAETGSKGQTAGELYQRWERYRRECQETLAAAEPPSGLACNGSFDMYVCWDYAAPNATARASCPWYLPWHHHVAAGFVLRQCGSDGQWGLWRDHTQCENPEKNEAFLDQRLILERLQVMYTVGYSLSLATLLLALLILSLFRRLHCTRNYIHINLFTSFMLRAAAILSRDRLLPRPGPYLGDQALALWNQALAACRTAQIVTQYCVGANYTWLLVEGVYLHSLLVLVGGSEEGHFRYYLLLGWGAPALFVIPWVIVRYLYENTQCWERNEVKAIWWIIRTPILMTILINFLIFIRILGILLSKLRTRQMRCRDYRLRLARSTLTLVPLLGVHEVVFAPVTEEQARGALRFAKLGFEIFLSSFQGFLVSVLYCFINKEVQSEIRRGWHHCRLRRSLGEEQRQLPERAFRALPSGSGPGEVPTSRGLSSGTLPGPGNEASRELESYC
Outline: as §1

GLP-1R (INS1e cells) = biological target: T6, GLP-1R (INS1e cells) (Rattus norvegicus, UniProt P32301); assay: INS1e assay, cAMP activity at GLP-1R; format: cell-based; details: Table 10, bis-lipidated peptides
T6 construct: endogenous in cells; host or cells: INS1e cells
T6 sequence (P32301 22-463): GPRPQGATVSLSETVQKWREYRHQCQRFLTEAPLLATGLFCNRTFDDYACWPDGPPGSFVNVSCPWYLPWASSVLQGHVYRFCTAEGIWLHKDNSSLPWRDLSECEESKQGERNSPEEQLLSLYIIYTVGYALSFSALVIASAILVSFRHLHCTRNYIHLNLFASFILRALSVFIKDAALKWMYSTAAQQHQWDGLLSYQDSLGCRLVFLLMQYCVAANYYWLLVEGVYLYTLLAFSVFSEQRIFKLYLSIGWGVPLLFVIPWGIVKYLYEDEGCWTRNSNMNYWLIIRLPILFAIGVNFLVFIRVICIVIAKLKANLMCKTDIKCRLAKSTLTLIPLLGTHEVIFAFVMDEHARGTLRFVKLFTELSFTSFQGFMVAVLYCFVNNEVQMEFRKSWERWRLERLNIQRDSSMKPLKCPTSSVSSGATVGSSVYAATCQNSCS

[6] = mean of n1 and n2, read-out: Primary assay EC50 Mean pM GLP-1R
[7] = replicate n1, read-out: Primary assay EC50 GLP-1R n1
[8] = replicate n2, read-out: Primary assay EC50 GLP-1R n2
[9] = first replicate, read-out: Primary assay EC50 Gluc-R (n1)
[10] = second replicate, read-out: Primary assay EC50 Gluc-R (n2)
[11] = first replicate, read-out: Primary assay EC50 GIP-R (n1)
[12] = second replicate, read-out: Primary assay EC50 GIP-R (n2)
[13] = mean of n1 and n2, read-out: INS1e assay EC50 Mean pM GLP-1R
[14] = replicate n1, read-out: INS1e assay EC50 GLP-1R n1
[15] = replicate n2, read-out: INS1e assay EC50 GLP-1R n2

T3 sequence (P43220 24-463): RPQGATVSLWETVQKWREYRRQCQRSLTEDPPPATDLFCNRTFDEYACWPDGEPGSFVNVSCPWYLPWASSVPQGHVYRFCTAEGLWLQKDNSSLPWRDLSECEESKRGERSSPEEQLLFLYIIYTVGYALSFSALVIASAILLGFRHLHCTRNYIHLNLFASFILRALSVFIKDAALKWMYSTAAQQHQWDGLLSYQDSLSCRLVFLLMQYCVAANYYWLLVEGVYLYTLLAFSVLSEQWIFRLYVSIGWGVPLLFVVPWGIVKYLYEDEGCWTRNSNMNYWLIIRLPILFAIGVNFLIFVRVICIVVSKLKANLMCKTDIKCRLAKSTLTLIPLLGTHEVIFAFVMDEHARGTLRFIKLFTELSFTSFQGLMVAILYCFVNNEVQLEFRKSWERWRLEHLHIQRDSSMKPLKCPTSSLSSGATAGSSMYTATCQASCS
T4 sequence (P47871 26-477): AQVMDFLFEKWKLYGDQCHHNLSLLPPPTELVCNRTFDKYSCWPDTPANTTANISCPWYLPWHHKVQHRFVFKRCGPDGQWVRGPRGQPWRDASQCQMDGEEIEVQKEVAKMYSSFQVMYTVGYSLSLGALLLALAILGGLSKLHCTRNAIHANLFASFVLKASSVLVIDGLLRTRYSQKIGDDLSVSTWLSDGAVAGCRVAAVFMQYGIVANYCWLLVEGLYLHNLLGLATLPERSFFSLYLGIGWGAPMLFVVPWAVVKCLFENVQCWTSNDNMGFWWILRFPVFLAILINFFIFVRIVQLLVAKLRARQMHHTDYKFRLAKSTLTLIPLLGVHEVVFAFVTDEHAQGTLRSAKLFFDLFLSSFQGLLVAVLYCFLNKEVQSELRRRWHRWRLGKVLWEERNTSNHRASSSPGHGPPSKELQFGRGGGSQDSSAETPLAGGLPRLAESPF
Sequence of porcine pancreatic trypsin (P00761 9-231): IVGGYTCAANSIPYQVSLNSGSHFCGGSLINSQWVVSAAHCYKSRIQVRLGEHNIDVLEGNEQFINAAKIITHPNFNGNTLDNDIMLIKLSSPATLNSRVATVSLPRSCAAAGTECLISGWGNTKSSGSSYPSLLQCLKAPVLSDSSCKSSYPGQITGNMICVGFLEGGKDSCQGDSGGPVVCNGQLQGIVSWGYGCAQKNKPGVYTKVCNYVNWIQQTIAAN
T2 sequence (P00791 60-385): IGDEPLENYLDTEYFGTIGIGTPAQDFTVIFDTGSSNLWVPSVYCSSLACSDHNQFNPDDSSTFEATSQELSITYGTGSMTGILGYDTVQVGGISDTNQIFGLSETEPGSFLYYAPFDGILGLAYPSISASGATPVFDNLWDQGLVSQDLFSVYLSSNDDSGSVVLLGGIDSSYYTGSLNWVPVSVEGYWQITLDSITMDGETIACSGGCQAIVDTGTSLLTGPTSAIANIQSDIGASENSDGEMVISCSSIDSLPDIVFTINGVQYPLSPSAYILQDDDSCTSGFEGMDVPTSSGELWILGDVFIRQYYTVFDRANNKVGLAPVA
T1 sequence (P08473 whole entry): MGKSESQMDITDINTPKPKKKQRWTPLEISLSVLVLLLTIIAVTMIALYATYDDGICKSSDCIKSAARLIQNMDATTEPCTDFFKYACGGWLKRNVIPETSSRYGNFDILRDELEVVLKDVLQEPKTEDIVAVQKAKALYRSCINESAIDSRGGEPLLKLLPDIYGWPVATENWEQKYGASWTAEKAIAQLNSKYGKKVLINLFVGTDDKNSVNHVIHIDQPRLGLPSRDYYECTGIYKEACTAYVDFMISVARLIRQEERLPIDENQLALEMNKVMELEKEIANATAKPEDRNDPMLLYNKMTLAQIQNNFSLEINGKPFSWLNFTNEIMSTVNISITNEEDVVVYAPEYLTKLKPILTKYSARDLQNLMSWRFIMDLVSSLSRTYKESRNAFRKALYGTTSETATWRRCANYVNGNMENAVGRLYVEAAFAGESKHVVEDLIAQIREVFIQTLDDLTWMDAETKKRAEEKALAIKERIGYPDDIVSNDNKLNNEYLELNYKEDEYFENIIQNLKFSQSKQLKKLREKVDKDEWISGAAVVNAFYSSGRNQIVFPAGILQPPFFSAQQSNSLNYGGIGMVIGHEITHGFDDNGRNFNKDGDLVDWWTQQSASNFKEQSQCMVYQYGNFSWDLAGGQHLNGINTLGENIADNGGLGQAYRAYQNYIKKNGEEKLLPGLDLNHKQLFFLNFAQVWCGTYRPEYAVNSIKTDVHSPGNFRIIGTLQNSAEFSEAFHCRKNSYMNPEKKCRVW

Row | Percentage remaining peptide (AUC at specified time-point by RP-HPLC) upon incubation with neprilysin, t = 0 (recombinant Neprilysin) [%] | Percentage remaining intact peptide (AUC by RP-HPLC) upon incubation with pepsin [1] [%] | Percentage remaining intact peptide (AUC by RP-HPLC) upon incubation with trypsin [2] [%] | EC50 [3, 6] [pM] | EC50 [3, 7] [pM] | EC50 [3, 8] [pM] | EC50 [4, 9] [nM] | EC50 [4, 10] [nM] | EC50 [5, 11] [nM] | EC50 [5, 12] [nM] | EC50 (GLP-1R (INS1e cells); [13]) [pM] | EC50 (GLP-1R (INS1e cells); [14]) [pM] | EC50 (GLP-1R (INS1e cells); [15]) [pM] | SMILES
1 | 100 | 100 | 100.0 | – | – | – | – | – | – | – | – | – | – | CC[C@H](C)[C@H](NC(=O)[C@H](Cc1ccccc1)NC(=O)[C@H](CCC(=O)O)NC(=O)[C@](C)(CCCCN)NC(=O)[C@H](C)NC(=O)[C@H](C)NC(=O)[C@H](CCC(=O)O)NC(=O)CNC(=O)[C@H](CCC(=O)O)NC(=O)[C@H](CC(C)C)NC(=O)[C@](C)(Cc1ccccc1)NC(=O)[C@H](CO)NC(=O)[C@](C)(CO)NC(=O)[C@@H](NC(=O)[C@H](CC(=O)O)NC(=O)[C@H](CO)NC(=O)[C@@H](NC(=O)[C@](C)(Cc1ccccc1)NC(=O)[C@H](CO)NC(=O)CNC(=O)[C@H](CCC(=O)O)NC(=O)C(C)(C)NC(=O)[C@@H](N)Cc1c[nH]cn1)[C@@H](C)O)C(C)C)C(=O)N[C@@H](CCCCNC(=O)COCCOCCNC(=O)COCCOCCNC(=O)CC[C@H](NC(=O)CCCCCCCCCCCCCCCCC(=O)O)C(=O)O)C(=O)N[C@@H](Cc1c[nH]c2ccccc12)C(=O)N[C@H](C(=O)N[C@H](C(=O)N[C@@H](CCC(=O)O)C(=O)NCC(=O)NCC(N)=O)C(C)C)C(C)C [compound 68] (H-H[Aib]EGS[αMeF]TSDV[αMeS]S[αMeF]LEGEAA[αMeK]EFIK([AEEA-AEEA-γGlu-C18 diacid])WVVEGG-NH2; N-terminus assumed)
2 | – | – | – | 12.8 | 18.2 | 7.37 | ≥ 22.6 | ≥ 22.6 | ≥ 22.6 | ≥ 22.6 | 1030 | 963 | 1100 | CCCCCCCCCCCC(=O)N[C@@H](CCC(=O)NCCOCCOCC(=O)NCCOCCOCC(=O)NCCCC[C@H](NC(=O)[C@H](CO)NC(=O)[C@](C)(CO)NC(=O)[C@@H](NC(=O)[C@H](CC(=O)O)NC(=O)[C@H](CO)NC(=O)[C@@H](NC(=O)[C@](C)(Cc1ccccc1)NC(=O)[C@H](CO)NC(=O)CNC(=O)[C@H](CCC(=O)O)NC(=O)C(C)(C)NC(=O)[C@@H](N)Cc1c[nH]cn1)[C@@H](C)O)C(C)C)C(=O)N[C@@H](CC(C)C)C(=O)N[C@@H](CCC(=O)O)C(=O)NCC(=O)N[C@@H](CCC(=O)O)C(=O)N[C@@H](C)C(=O)N[C@@H](C)C(=O)N[C@@](C)(CCCCN)C(=O)N[C@@H](CCC(=O)O)C(=O)N[C@@H](Cc1ccccc1)C(=O)N[C@H](C(=O)N[C@@H](C)C(=O)N[C@@H](Cc1c[nH]c2ccccc12)C(=O)N[C@@H](CCCCNC(=O)COCCOCCNC(=O)COCCOCCNC(=O)CC[C@H](NC(=O)CCCCCCCCCCC)C(=O)O)C(=O)N[C@H](C(=O)N[C@@H](CCC(=O)O)C(=O)NCC(=O)NCC(N)=O)C(C)C)[C@@H](C)CC)C(=O)O [compound 264] (H-H[Aib]EGS[αMeF]TSDV[αMeS]SK([AEEA-AEEA-γGlu-Lauroyl])LEGEAA[αMeK]EFIAWK([AEEA-AEEA-γGlu-Lauroyl])VEGG-NH2; N-terminus assumed)
3 | – | – | – | 4.8 | 4.46 | 5.05 | ≥ 22.2 | ≥ 22.2 | ≥ 22.2 | ≥ 22.2 | 1160 | 1090 | 1230 | CCCCCCCCCCCC(=O)N[C@@H](CCC(=O)NCCOCCOCC(=O)NCCOCCOCC(=O)NCCCC[C@H](NC(=O)[C@H](Cc1ccc(O)cc1)NC(=O)[C@H](CO)NC(=O)[C@](C)(CO)NC(=O)[C@@H](NC(=O)[C@H](CC(=O)O)NC(=O)[C@H](CO)NC(=O)[C@@H](NC(=O)[C@](C)(Cc1ccccc1)NC(=O)[C@H](CO)NC(=O)CNC(=O)[C@H](CCC(=O)O)NC(=O)C(C)(C)NC(=O)[C@@H](N)Cc1c[nH]cn1)[C@@H](C)O)C(C)C)C(=O)N[C@@H](CCC(=O)O)C(=O)NCC(=O)N[C@@H](CCC(=O)O)C(=O)N[C@@H](C)C(=O)N[C@@H](C)C(=O)N[C@@](C)(CCCCN)C(=O)N[C@@H](CCC(=O)O)C(=O)N[C@@H](Cc1ccccc1)C(=O)N[C@H](C(=O)N[C@@H](CCCCNC(=O)COCCOCCNC(=O)COCCOCCNC(=O)CC[C@H](NC(=O)CCCCCCCCCCC)C(=O)O)C(=O)N[C@@H](Cc1c[nH]c2ccccc12)C(=O)N[C@H](C(=O)N[C@H](C(=O)N[C@@H](CCC(=O)O)C(=O)NCC(=O)NCC(N)=O)C(C)C)C(C)C)[C@@H](C)CC)C(=O)O [compound 268] (H-H[Aib]EGS[αMeF]TSDV[αMeS]SYK([AEEA-AEEA-γGlu-Lauroyl])EGEAA[αMeK]EFIK([AEEA-AEEA-γGlu-Lauroyl])WVVEGG-NH2; N-terminus assumed)
4 | 100 | 100 | 100 | – | – | – | – | – | – | – | – | – | – | CCCCCCCCCCCCCCCC(=O)NCCCC[C@H](NC(=O)CNC(=O)CNC(=O)[C@](C)(CCCCN)NC(=O)[C@@H](NC(=O)[C@@H](NC(=O)[C@](C)(Cc1ccccc1)NC(=O)[C@H](C)NC(=O)[C@@H](NC(=O)[C@](C)(Cc1ccccc1)NC(=O)[C@H](CCC(=O)O)NC(=O)[C@](C)(CCCCN)NC(=O)[C@H](C)NC(=O)[C@H](C)NC(=O)[C@H](CCC(N)=O)NC(=O)CNC(=O)[C@H](CCC(=O)O)NC(=O)[C@H](CC(C)C)NC(=O)[C@](C)(Cc1ccccc1)NC(=O)[C@H](CO)NC(=O)[C@H](CO)NC(=O)[C@@H](NC(=O)[C@H](CC(=O)O)NC(=O)[C@H](CO)NC(=O)[C@@H](NC(=O)[C@](C)(Cc1ccccc1)NC(=O)[C@H](CO)NC(=O)CNC(=O)[C@H](CCC(=O)O)NC(=O)C(C)(C)NC(=O)[C@@H](N)Cc1c[nH]cn1)[C@@H](C)O)C(C)C)[C@@H](C)CC)C(C)C)C(C)C)C(N)=O [compound 489] (H-H[Aib]EGS[αMeF]TSDVSS[αMeF]LEGQAA[αMeK]E[αMeF]IA[αMeF]VV[αMeK]GGK(Palmitoyl)-NH2)
